# Results taken from patent publication US20240360146A1, “BRUTON'S TYROSINE KINASE AND MUTANT DEGRADER, COMPOSITION AND APPLICATION THEREOF” (HANGZHOU HEALZEN THERAPEUTICS CO., LTD., priority 2021, published 2024).
# Tests used:
# [1] = target: T1, BTK (Homo sapiens, UniProt Q06187); assay: BTK degradation activity test in Mino cells; type: cell-based; settings: 16 h incubation, Western blot or Elisa
# T1 construct: endogenous in cells; host or cells: Mino cells
# Procedure, shortened: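 Mino cells treated with a concentration series of compound for 16 h, then lysed; total protein by BCA. BTK quantified by Western blot or ELISA, degradation rate calculated against blank control, and DC50 fitted from the degradation curve.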
# [2] = test system: Mino cells; assay: Inhibitory activity on Mino cell proliferation (MTS); type: cell-based; settings: Homo sapiens, 168 h incubation
# Method: The anti-tumor efficacy of the compounds was tested by measuring their inhibitory effects on OCI-LY10 and Mino cell proliferation. OCI-LY10 and Mino cells were cultured in RPMI-1640 medium containing 10% fetal calf serum. OCI-LY10 and Mino cells were digested, inoculated in a 96-well plate at a cell concentration of 10000 cells/well, and incubated overnight at 37° C., 5% CO2. Compounds of different concentrations (1000 nM, 4-fold dilution, 8 points) were added to the 96-well plate and incubated for 72 h (LY10) or 168 h (Mino) at 37° C. and 5% CO2, and then 20 uL of MTS was added to each well. After incubation for 2 h, 25 μl of 10% SDS was added to each well to terminate the reaction. The absorbance at 490 nm and 650 nm were measured with a microplate reader. IC50 was calculated using GraphPad Prism 5.0.
# T1 sequence (Q06187 whole entry): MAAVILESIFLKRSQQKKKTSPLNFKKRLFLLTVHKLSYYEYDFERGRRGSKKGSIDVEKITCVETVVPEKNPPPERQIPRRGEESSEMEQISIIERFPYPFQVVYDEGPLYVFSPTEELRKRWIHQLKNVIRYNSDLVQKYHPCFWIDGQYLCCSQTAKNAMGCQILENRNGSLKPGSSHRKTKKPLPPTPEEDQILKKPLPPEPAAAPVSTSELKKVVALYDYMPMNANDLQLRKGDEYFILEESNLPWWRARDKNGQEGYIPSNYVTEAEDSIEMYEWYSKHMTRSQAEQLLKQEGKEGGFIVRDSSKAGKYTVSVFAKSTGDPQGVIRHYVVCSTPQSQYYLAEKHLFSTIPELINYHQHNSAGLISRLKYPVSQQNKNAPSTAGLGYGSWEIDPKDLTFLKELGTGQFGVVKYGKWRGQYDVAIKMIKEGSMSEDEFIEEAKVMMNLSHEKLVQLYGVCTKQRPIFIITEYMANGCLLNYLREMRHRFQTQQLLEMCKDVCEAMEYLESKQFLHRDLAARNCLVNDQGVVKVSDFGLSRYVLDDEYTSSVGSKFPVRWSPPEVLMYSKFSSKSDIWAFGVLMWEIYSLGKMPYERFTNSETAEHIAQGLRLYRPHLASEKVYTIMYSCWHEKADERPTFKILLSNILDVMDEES
SMILES,DC50 [1],IC50 [2]
"CN1CCN([C@@H]2CCCN(c3nnc(C(N)=O)c(Nc4ccc(N5CCN(CC6CCN(c7ccc(N8CCC(=O)NC8=O)c8[nH]cnc78)CC6)CC5)c(F)c4)n3)C2)C1=O [Compound 192, (R)-5-((4-(4-((1-(7-(2,4-dioxotetrahydropyrimidin-1(2H)-yl)-1H-benzo[d]imidazol-4-yl)piperidin-4-yl)methyl)piperazin-1-yl)-3-fluorophenyl)amino)-3-(3-(3-methyl-2-oxoimidazolidin-1-yl)piperidin-1-yl)-1,2,4-triazin-6-carboxamide]",< 1 nM,2.41 nM
"CN1CCN([C@@H]2CCCN(c3nnc(C(N)=O)c(Nc4ccc(N5CCN(CC6CCN(c7ccc(C(=O)NC8CCC(=O)NC8=O)c(F)c7F)CC6)CC5)c(F)c4)n3)C2)C1=O (stereo partly drawn) [Compound 182, 5-((4-(4-((1-(4-((2,6-dioxopiperidin-3-yl)carbamoyl)-2,3-difluorophenyl)piperidin-4-yl)methyl)piperazin-1-yl)-3-fluorophenyl)amino)-3-((R)-3-(3-methyl-2-oxoimidazolidin-1-yl)piperidin-1-yl)-1,2,4-triazin-6-carboxamide]",< 1 nM,3.19 nM
"CN1CCN([C@@H]2CCCN(c3nnc(C(N)=O)c(Nc4ccc(N5CCN(CC6CCN(c7ccc8c(C9CCC(=O)NC9=O)nn(C)c8c7)CC6)CC5)c(F)c4)n3)C2)C1=O (stereo partly drawn) [Compound 213, 5-((4-(4-((1-(3-(2,6-dioxopiperidin-3-yl)-1-methyl-1H-indazol-6-yl)piperidin-4-yl)methyl)piperazin-1-yl)-3-fluorophenyl)amino)-3-((R)-3-(3-methyl-2-oxoimidazolidin-1-yl)piperidin-1-yl)-1,2,4-triazin-6-carboxamide]",< 1 nM,7.64 nM
"CN1CCN([C@@H]2CCCN(c3nnc(C(N)=O)c(Nc4ccc(N5CCN(CC6CCN(c7ccc(N8CCC(=O)NC8=O)c8ocnc78)CC6)CC5)c(F)c4)n3)C2)C1=O [Compound 191, (R)-5-((4-(4-((1-(7-(2,4-dioxotetrahydropyrimidin-1(2H)-yl)benzo[d]oxazol-4-yl)piperidin-4-yl)methyl)piperazin-1-yl)-3-fluorophenyl)amino)-3-(3-(3-methyl-2-oxoimidazolidin-1-yl)piperidin-1-yl)-1,2,4-triazin-6-carboxamide]",< 1 nM,8.47 nM
"CC1(c2ccc(Nc3nc(N4CCCC(n5cc6ccccn6c5=O)C4)cnc3C(N)=O)cc2)CCN(C2CN(c3ccc4c(c3)C(=O)N(C3CCC(=O)NC3=O)C4=O)C2)CC1 (stereo not drawn) [Compound 026, 3-((4-(1-(1-(2-(2,6-dioxopiperidin-3-yl)-1,3-dioxoisoindolin-5-yl)azetidin-3-yl)-4-methylpiperidin-4-yl)phenyl)amino)-5-(3-(3-oxoimidazo[1,5-a]pyridin-2(3H)-yl)piperidin-1-yl)pyrazin-2-carboxamide]",> 1 nM,–
"NC(=O)c1nnc(N2CCCC(N3CCN(c4ccccc4)C3=O)C2)nc1Nc1ccc2c(c1)CCN(CC1CCN(c3ccc4c(c3)C(=O)N(C3CCC(=O)NC3=O)C4=O)CC1)C2 (stereo not drawn) [Compound 094, 5-((2-((1-(2-(2,6-dioxopiperidin-3-yl)-1,3-dioxoisoindol-5-yl)piperidin-4-yl)methyl)-1,2,3,4-tetrahydroisoquinolin-6-yl)amino)-3-(3-(2-oxo-3-phenylimidazolin-1-yl)piperidin-1-yl)-1,2,4-triazin-6-carboxamide]",< 1 nM,–
"NC(=O)c1ncc(N2CCCC(N3CCN(C4CCCC4)C3=O)C2)nc1Nc1ccc(C2CCN(C3CN(c4ccc5c(c4)C(=O)N(C4CCC(=O)NC4=O)C5=O)C3)CC2)cc1 (stereo not drawn) [Compound 027, 5-(3-(3-cyclopentyl-2-oxyimidazolin-1-yl)piperidin-1-yl)-3-((4-(1-(1-(2-(2,6-dioxopiperidin-3-yl)-1,3-dioxoisoindol-5-yl)azetidin-3-yl)piperidin-4-yl)phenyl)amino) pyrazin-2-carboxamide]",> 1 nM,–
"NC(=O)c1nnc(N2CCC[C@@H](N3CCN(CC(F)(F)F)C3=O)C2)nc1Nc1ccc(N2CCC(CN3CCN(c4cc5c(cc4F)C(=O)N(C4CCC(=O)NC4=O)C5=O)CC3)CC2)cc1 (stereo partly drawn) [Compound 142, 5-((4-(4-((4-(2-(2,6-dioxopiperidin-3-yl)-6-fluoro-1,3-dioxoisoindolin-5-yl)piperazin-1-yl)methyl)piperidin-1-yl)phenyl)amino)-3-((R)-3-(2-oxo-3-(2,2,2-trifluoroethyl)imidazolin-1-yl)piperidin-1-yl)-1,2,4-triazin-6-carboxamide]",< 1 nM,–
"CN1CCN(C2CCCN(c3nnc(C(N)=O)c(Nc4ccc(C5CCN(C6CCN(c7ccc8c(c7)C(=O)N(C7CCC(=O)NC7=O)C8=O)CC6)CC5)cc4)n3)C2)C1=O (stereo not drawn) [Compound 083, 5-((4-(1′-(2-(2,6-dioxopiperidin-3-yl)-1,3-dioxoisoindol-5-yl)-[1,4′-bipiperidin]-4-yl)phenyl)amino)-3-(3-(3-methyl-2-oxoimidazolin-1-yl)piperidin-1-yl)-1,2,4-triazin-6-carboxamide]",< 1 nM,–
"CN1CCN([C@@H]2CCCN(c3nnc(C(N)=O)c(Nc4ccc(N5CCN(CC6CCN(c7cccc8c(C(=O)NC9CCC(=O)NC9=O)cccc78)CC6)CC5)c(F)c4)n3)C2)C1=O (stereo partly drawn) [Compound 249, 5-((4-(4-((1-(5-((2,6-dioxopiperidin-3-yl)carbamoyl)naphthalen-1-yl)piperidin-4-yl)methyl)piperazin-1-yl)-3-fluorophenyl)amino)-3-((R)-3-(3-methyl-2-oxoimidazolidin-1-yl)piperidin-1-yl)-1,2,4-triazin-6-carboxamide]",< 1 nM,–
"CC1(c2ccc(Nc3nc(N4CCCC(N5CCN(C6CCCC6)C5=O)C4)cnc3C(N)=O)cc2)CCN(C2CN(c3ccc4c(=O)n(C5CCC(=O)NC5=O)ccc4c3)C2)CC1 (stereo not drawn) [Compound 023, 5-(3-(3-cyclopentyl-2-oxoimidazolin-1-yl)piperidin-1-yl)-3-((4-(1-(1-(2-(2,6-dioxopiperidin-3-yl)-1-oxo-1,2-dihydroisoquinolin-6-yl)azetidin-3-yl)-4-methylpiperidin-4-yl)phenyl)amino)pyrazin-2-carboxamide]",> 1 nM,–
"NC(=O)c1ncc(N2CCCC(N3CCN(C4COC4)C3=O)C2)nc1Nc1ccc2c(c1)CCN(CC1CN(c3ccc4c(c3)C(=O)N(C3CCC(=O)NC3=O)C4=O)C1)C2 (stereo not drawn) [Compound 032, 3-((2-((1-(2-(2,6-dioxopiperidin-3-yl)-1,3-dioxoisoindol-5-yl)azetidine-3-yl)methyl)-1,2,3,4-tetrahydroisoquinolin-6-yl)amino)-5-(3-(3-(oxetan-3-yl)-2-oxyimidazolin-1-yl)piperidin-1-yl)pyrazin-2-carboxamide]",< 1 nM,–
"CN1CCN([C@@H]2CCCN(c3nnc(C(N)=O)c(Nc4ccc(N5CCN(CC6CCN(c7ccc(NC8CCC(=O)NC8=O)c(F)c7)C6)CC5)c(F)c4)n3)C2)C1=O (stereo partly drawn) [Compound 204, 5-((4-(4-((1-(4-((2,6-dioxopiperidin-3-yl)amino)-3-fluorophenyl)pyrrolidin-3-yl)methyl)piperazin-1-yl)-3-fluorophenyl)amino)-3-((R)-3-(3-methyl-2-oxoimidazolidin-1-yl)piperidin-1-yl)-1,2,4-triazin-6-carboxamide]",< 1 nM,–
"CN1CCN(C2CC3CC2N(c2nnc(C(N)=O)c(Nc4ccc5c(c4)CCN(CC4CCN(c6ccc7c(c6)C(=O)N(C6CCC(=O)NC6=O)C7=O)CC4)C5)n2)C3)C1=O (stereo not drawn) [Compound 107, 5-((2-((1-(2-(2,6-dioxopiperidin-3-yl)-1,3-dioxoisoindol-5-yl)piperidin-4-yl)methyl)-1,2,3,4-tetrahydroisoquinolin-6-yl)amino)-3-(6-(3-methyl-2-oxoimidazolin-1-yl)-2-azabicyclo[2.2.1]heptan-2-yl)-1,2,4-triazin-6-carboxamide]",< 1 nM,–
"NC(=O)c1ncc(N2CCCC(N3CCN(C4CCCC4)C3=O)C2)nc1Nc1ccc2c(c1)CCN(CC1CCN(c3ccc4c(c3)C(=O)N(C3CCC(=O)NC3=O)C4=O)CC1)C2 (stereo not drawn) [Compound 030, 5-(3-(3-cyclopentyl-2-oxoimidazolin-1-yl)piperidin-1-yl)-3-((2-((1-(2-(2,6-dioxopiperidin-3-yl)-1,3-dioxoisoindol-5-yl)piperidin-4-yl)methyl)-1,2,3,4-tetrahydroisoquinolin-6-yl)amino)pyrazin-2-carboxamide]",< 1 nM,–
"CC1(c2ccc(Nc3nc(N4CCCC(N5CCN(C6CCCC6)C5=O)C4)cnc3C(N)=O)cc2)CCN(CC2CCN(c3ccc4c(c3)C(=O)N(C3CCC(=O)NC3=O)C4=O)C2)CC1 (stereo not drawn) [Compound 034, 5-(3-(3-cyclopentyl-2-oxoimidazolin-1-yl)piperidin-1-yl)-3-((4-(1-((1-(2-(2,6-dioxopiperidin-3-yl)-1,3-dioxoisoindolin-5-yl)pyrrolidin-3-yl)methyl)-4-methylpiperidin-4-yl)phenyl)amino)pyrazin-2-carboxamide]",< 1 nM,–
"CN1CCN(C2CC3CC2N(c2nnc(C(N)=O)c(Nc4ccc(C5CCN(CC6CCN(c7ccc8c(c7)CN(C7CCC(=O)NC7=O)C8=O)CC6)CC5)cc4)n2)C3)C1=O (stereo not drawn) [Compound 113, 5-((4-(1-((1-(2-(2,6-dioxopiperidin-3-yl)-1-oxoisoindol-5-yl)piperidin-4-yl)methyl)piperidin-4-yl)phenyl)amino)-3-(6-(3-methyl-2-oxoimidazolin-1-yl)-2-azabicycloheptan-2-yl)-1,2,4-triazin-6-carboxamide]",< 1 nM,–
